This is an account of results in paper PMC6199309, “A therapeutic approach to pantothenate kinase associated neurodegeneration” (Nature Communications, 2018).

One data set has as its target T1, AURKA (Homo sapiens, UniProt O14965).
T1 construct: purchased DiscoverX KINOMEscan
The data set is described as follows: KINOMEscan. Format: binding. The note with it: read-out: %Ctrl @ 10000nM.

A further data set concerns the target T2, HUNK (Homo sapiens, UniProt P57058).
T2 construct: purchased DiscoverX KINOMEscan
As to the kind of experiment: KINOMEscan. Format: binding. The following applies: read-out: %Ctrl @ 10000nM.

Data set [1] addresses T3, JAK1(JH2domain-pseudokinase) (Homo sapiens, UniProt P23458).
T3 construct: JAK1(JH2domain-pseudokinase); purchased DiscoverX KINOMEscan
The data set is described as follows: KINOMEscan. Format: binding. The following applies: read-out: %Ctrl @ 10000nM.

The target in a further data set is T4, MEK1 (Homo sapiens, UniProt Q02750).
T4 construct: purchased DiscoverX KINOMEscan
The data set is described as follows: KINOMEscan. Format: binding. The note with it: read-out: %Ctrl @ 10000nM.

A further data set addresses T5, MEK2 (Homo sapiens, UniProt P36507).
T5 construct: purchased DiscoverX KINOMEscan
The data set is described as follows: KINOMEscan. Format: binding. The note with it: read-out: %Ctrl @ 10000nM.

Another data set has as its target T6, MLK1 (Homo sapiens, UniProt P80192).
T6 construct: purchased DiscoverX KINOMEscan
As to the kind of experiment: KINOMEscan. The note with it: read-out: %Ctrl @ 10000nM. Format: binding.

For a further data set, the target named is T7, MLK3 (Homo sapiens, UniProt Q16584).
T7 construct: purchased DiscoverX KINOMEscan
The data set is described as follows: KINOMEscan. Format: binding. The following applies: read-out: %Ctrl @ 10000nM.

A further data set deals with T8, NEK4 (Homo sapiens, UniProt P51957).
T8 construct: purchased DiscoverX KINOMEscan
The data set is described as follows: KINOMEscan. Format: binding. The note with it: read-out: %Ctrl @ 10000nM.

Another data set deals with T9, p38-beta (Homo sapiens, UniProt Q15759).
T9 construct: purchased DiscoverX KINOMEscan
As to the kind of experiment: KINOMEscan. Format: binding. The following applies: read-out: %Ctrl @ 10000nM.

For a further data set, the target named is T10, PCTK2 (Homo sapiens, UniProt Q00537).
T10 construct: purchased DiscoverX KINOMEscan
The data set is described as follows: KINOMEscan. Format: binding. The following applies: read-out: %Ctrl @ 10000nM.

The target in another data set is T11, PRKCD (Homo sapiens, UniProt Q05655).
T11 construct: purchased DiscoverX KINOMEscan
As to the kind of experiment: KINOMEscan. Format: binding. The note with it: read-out: %Ctrl @ 10000nM.

For a further data set, the target named is T12, TRPM6 (Homo sapiens, UniProt Q9BX84).
T12 construct: DNA label for qPCR (T7 phage fusion or DNA tag); purchased DiscoverX scanMAX; host or cells: E. coli BL21-derived (T7 phage) or HEK-293
The data set is described as follows: KINOMEscan. Format: binding. The note with it: read-out: %Ctrl @ 10000nM.

The target of another data set is T13, VPS34 (Homo sapiens, UniProt Q8NEB9).
T13 construct: DNA label for qPCR (T7 phage fusion or DNA tag); purchased DiscoverX scanMAX; host or cells: E. coli BL21-derived (T7 phage) or HEK-293
The data set is described as follows: KINOMEscan. Format: binding. The following applies: read-out: %Ctrl @ 10000nM.

The target of a further data set is T14, YSK1 (Homo sapiens, UniProt O00506).
T14 construct: purchased DiscoverX scanMAX; host or cells: E. coli BL21-derived host (T7 phage) or HEK-293
The data set is described as follows: KINOMEscan. Format: binding. The following applies: read-out: %Ctrl @ 10000nM.

The next data set can be described thus: PAMPA-BBB. Format: in vitro ADME. The note with it: BBB = Blood Brain Barrier, read-out: PAMPA-BBB, Avg Pe.
The next data set deals with C3A cells. As to the kind of experiment: Intracellular CoA and metabolite levels in C3A cells. Format: cell-based, human. The note with it: 24 h. On the procedure:
HEK293T cells (ATCC, #CRL-3216) were maintained in Dulbecco’s modified Eagle’s medium (DMEM, Biowhittaker/Lonza) supplemented with 10% FCS. Human C3A [HepG2/C3A, derivative of HepG2] cells (ATCC #CRL-10741) were purchased from ATCC® and maintained in Eagle’s minimum Essential medium (ATCC) supplemented with 2 mM glutamine, 10% fetal bovine serum (FCS, Altanta Biologicals), 50 U/ml penicillin and […] streptomycin. Both cell lines were confirmed to be mycoplasma-free. […]. […] After 24 h of treatment (total 48 h after transfection) the cells were washed with PBS and harvested and subjected to either total CoA or acetyl-CoA determinations.
Prior to labeling, cells were seeded at a density of 2–3 × 10^6 in 60 mm-dishes in reconstituted DMEM without added pantothenate and allowed to adhere overnight. The labeling was initiated by replacing the medium with 2 ml of labeling medium containing 0.1% dimethylsulfoxide (DMSO; control) or 10 μM of the compound in 0.1% DMSO. Cells were incubated for 24 h, the labeling medium was removed, and cells were washed with phosphate buffered saline and lysed by sonication in 20 mM Tris-HCl, pH 7.5, 2 mM DTT, 5 mM EDTA and 50 mM NaF. The lysates were fractionated by thin-layer chromatography after removal of the cell debris by centrifugation. The samples were spotted on Silica Gel H plates and resolved with 95% ethanol:28% ammonium hydroxide (4/1, v/v). The distribution of radioactivity on the plate was quantified using a Bioscan Imager (Bioscan, Inc.) together with quantification of the total cellular radioactivity determined by a Liquid Scintillation Analyzer (PerkinElmer Tri-Carb 2910 TR). Triplicate culture dishes were labeled for each group plus a dish for each group for determination of cell counts and viability using a Nucleocounter (New Brunswick Scientific) according to the manufacturer’s directions. The experiments were repeated twice in duplicate and the data represented is an overall average ± SEM.
Cultured cells or frozen tissues were resuspended in 2 ml cold water to which 500 μl of 0.25 M KOH was added, derivatized with monobromobimane (mBBr, Life technologies) and quantified by HPLC[23]. For acetyl-CoA determinations, C3A cells were resuspended in 1 ml water, added to 2 ml of methanol and 1 ml chloroform, and incubated on ice for 15 min. Chloroform 1.5 ml, 1.2 ml water and 30 pmol of [^13C2]acetyl-CoA (Sigma) was added, and centrifuged at 2000×g for 10 min. The top layer was loaded on a 2-(2-pyridyl) ethyl solid phase extraction column which was equilibrated with 1 ml 50% methanol/2% acetic acid. The column was washed twice with 1 ml 50% methanol/2% acetic acid and 1 ml water. CoA and thioesters were eluted twice with 1 ml 95% ethanol containing 50 mM ammonium hydroxide. Samples were resuspended in 90% methanol containing 15 mM ammonium hydroxide.
The mBBr derivatized sample was fractionated by reverse-phase HPLC using a Gemini C18 3 μm column (150 × 4.60 mm) from Phenomenex. The chromatography system was a Waters e2695 separation module with a UV/Vis and fluorescence detector and controlled by Empower 3 software. Solvent A was 50 mM potassium phosphate pH 4.6, and solvent B was 100% acetonitrile. Twenty microliters of sample was injected onto the column, and the flow rate was 0.5 ml/min. The HPLC program was the following: starting solvent mixture of 90% A/10% B, 0–2 min isocratic with 10% B, 2–6 min linear gradient from 10% B to 15% B, 6–18 min concave gradient from 15% B to 40% B, 18–23 min isocratic with 40% B, 23–25 min linear gradient from 40 to 10%, and 25–30 min isocratic with 10% B. The UV/vis detector was set at 393 nm, and the fluorescence detector was set with excitation at 393 nm and emission at 470 nm. […]

Another data set deals with T15, SIK2 (Homo sapiens, UniProt Q9H0K1).
T15 construct: DNA tag for qPCR (T7 phage fusion or DNA label); purchased DiscoverX KdELECT; host or cells: E. coli BL21-derived (T7 phage) or HEK-293
As to the kind of experiment: KINOMEscan KdELECT. Format: binding.

T15 sequence (Q9H0K1 whole entry, the tested form may be a part): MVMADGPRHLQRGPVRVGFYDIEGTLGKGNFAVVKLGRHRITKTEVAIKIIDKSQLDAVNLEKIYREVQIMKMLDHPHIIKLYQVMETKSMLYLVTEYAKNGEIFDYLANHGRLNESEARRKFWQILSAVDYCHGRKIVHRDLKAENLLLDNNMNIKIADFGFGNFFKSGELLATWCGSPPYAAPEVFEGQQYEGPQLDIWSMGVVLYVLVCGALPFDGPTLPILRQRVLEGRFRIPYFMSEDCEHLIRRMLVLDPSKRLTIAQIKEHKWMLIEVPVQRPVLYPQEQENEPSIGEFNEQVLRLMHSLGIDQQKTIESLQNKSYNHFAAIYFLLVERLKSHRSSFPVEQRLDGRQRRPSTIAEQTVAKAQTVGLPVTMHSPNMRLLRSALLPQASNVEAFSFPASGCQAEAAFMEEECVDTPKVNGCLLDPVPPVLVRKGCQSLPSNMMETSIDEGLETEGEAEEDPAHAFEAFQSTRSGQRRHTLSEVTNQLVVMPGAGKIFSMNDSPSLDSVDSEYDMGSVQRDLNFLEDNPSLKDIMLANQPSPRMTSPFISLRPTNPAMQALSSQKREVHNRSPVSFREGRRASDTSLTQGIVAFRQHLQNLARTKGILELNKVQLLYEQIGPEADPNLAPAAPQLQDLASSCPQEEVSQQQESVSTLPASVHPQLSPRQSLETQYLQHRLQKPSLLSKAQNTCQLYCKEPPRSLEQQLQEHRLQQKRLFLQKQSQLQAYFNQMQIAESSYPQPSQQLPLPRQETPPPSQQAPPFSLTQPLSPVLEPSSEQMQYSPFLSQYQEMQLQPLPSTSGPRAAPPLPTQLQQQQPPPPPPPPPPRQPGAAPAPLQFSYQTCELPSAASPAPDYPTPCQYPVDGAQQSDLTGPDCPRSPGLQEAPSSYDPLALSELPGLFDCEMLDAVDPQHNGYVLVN
T8 sequence (P51957 whole entry): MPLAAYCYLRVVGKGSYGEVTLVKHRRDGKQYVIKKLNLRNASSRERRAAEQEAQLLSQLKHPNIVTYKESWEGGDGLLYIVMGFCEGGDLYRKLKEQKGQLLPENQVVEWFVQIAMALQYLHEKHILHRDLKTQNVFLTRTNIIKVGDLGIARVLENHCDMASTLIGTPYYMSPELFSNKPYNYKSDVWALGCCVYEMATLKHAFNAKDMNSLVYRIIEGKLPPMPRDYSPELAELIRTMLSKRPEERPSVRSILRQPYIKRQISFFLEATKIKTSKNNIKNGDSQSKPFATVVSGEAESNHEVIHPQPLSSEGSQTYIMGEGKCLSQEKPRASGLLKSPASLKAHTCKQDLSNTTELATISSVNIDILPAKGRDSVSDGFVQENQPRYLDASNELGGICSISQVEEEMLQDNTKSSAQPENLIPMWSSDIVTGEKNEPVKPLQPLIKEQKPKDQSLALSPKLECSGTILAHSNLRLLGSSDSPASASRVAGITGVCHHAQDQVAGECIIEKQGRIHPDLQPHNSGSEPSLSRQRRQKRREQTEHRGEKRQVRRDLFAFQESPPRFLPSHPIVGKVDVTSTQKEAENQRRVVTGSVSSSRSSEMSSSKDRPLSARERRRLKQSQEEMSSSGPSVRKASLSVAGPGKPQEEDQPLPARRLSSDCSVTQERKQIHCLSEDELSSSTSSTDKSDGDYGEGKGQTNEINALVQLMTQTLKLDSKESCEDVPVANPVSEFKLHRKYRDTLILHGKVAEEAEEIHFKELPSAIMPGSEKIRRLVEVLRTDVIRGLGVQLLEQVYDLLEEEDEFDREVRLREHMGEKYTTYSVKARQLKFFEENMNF
T6 sequence (P80192 whole entry): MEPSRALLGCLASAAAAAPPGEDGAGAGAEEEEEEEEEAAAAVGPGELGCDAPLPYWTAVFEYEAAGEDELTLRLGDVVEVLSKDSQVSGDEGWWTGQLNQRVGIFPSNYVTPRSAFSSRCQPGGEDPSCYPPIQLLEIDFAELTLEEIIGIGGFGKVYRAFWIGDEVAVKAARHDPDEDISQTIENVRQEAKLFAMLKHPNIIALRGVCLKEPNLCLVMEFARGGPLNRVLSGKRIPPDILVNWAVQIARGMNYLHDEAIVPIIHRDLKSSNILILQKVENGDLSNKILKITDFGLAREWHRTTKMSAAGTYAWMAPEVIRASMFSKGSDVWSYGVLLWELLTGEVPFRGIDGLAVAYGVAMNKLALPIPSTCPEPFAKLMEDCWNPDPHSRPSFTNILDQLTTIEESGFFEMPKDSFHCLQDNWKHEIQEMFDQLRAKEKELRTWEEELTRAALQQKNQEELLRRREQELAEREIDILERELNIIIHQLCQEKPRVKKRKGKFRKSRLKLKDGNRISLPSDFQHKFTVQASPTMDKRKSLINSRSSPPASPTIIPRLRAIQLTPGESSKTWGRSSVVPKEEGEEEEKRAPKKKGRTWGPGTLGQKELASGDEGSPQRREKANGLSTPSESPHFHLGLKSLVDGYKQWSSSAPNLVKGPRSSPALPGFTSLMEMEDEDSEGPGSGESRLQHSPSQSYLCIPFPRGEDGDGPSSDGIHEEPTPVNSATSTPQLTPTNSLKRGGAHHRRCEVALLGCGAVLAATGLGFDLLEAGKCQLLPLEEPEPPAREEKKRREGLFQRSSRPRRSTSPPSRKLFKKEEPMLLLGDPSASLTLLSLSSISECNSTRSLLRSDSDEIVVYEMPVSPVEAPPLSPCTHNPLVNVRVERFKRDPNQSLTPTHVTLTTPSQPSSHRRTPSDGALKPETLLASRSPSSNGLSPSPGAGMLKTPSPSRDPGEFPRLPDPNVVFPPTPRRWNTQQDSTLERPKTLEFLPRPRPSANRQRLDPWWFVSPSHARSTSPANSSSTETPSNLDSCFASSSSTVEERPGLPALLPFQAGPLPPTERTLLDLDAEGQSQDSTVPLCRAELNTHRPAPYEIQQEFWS
T9 sequence (Q15759 whole entry): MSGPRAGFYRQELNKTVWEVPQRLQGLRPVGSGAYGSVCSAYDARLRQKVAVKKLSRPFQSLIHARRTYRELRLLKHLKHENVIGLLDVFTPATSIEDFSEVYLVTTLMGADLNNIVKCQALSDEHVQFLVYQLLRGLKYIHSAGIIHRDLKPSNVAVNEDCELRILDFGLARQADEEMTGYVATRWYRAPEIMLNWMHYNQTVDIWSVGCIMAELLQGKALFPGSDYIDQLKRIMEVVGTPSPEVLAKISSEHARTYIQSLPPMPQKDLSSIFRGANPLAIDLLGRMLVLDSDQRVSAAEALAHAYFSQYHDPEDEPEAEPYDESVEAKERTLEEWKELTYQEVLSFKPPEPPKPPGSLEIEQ
T10 sequence (Q00537 whole entry): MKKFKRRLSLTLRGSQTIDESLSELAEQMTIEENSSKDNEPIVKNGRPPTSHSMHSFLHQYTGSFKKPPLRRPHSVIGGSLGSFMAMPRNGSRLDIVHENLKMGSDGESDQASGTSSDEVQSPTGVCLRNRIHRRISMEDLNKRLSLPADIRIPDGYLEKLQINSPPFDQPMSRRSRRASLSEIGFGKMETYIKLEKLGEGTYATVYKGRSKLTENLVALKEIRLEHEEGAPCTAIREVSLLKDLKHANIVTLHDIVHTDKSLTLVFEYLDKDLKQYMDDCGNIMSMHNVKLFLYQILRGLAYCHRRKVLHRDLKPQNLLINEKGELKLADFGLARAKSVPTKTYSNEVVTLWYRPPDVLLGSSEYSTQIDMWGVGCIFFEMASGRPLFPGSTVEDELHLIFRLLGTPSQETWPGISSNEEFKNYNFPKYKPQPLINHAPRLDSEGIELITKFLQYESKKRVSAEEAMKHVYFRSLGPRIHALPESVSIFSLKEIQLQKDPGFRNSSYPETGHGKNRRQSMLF
T5 sequence (P36507 whole entry): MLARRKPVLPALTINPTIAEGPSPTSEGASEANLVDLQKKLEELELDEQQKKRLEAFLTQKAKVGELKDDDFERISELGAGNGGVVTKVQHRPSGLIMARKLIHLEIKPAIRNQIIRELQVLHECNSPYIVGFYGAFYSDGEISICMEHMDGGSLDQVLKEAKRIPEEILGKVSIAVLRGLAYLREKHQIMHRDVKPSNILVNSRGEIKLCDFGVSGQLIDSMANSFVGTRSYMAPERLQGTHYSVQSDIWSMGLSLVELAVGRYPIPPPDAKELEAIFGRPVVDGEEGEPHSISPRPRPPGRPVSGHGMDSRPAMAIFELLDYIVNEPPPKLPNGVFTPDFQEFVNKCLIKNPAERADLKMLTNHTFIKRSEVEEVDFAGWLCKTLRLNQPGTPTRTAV
T7 sequence (Q16584 whole entry): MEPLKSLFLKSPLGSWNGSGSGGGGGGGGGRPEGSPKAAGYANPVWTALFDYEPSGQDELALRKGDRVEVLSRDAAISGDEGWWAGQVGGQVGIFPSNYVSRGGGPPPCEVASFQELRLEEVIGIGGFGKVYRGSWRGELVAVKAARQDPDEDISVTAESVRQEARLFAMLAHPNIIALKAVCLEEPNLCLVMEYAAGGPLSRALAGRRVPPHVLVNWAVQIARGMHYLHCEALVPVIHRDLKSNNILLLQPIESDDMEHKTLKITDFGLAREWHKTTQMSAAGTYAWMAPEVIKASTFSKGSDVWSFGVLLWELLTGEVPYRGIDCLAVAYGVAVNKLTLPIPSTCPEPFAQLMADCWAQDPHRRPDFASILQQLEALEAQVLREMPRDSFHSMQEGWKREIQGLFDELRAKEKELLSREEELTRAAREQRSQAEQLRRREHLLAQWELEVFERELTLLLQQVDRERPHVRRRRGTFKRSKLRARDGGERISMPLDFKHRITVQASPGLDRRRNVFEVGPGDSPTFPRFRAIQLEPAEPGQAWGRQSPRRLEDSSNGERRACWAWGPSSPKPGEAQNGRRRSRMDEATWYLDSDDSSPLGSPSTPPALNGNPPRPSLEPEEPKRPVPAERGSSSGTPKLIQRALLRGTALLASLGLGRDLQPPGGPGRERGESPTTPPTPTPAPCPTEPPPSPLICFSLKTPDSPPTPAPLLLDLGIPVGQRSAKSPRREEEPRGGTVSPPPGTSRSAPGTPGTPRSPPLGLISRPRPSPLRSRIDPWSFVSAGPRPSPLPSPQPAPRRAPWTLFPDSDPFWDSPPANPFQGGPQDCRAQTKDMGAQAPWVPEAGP

The Kd is the free concentration of one partner at which half of the binding sites on the other are occupied at equilibrium, for simple one-to-one binding. Low values mean a tighter complex, high ones a looser complex. For `CC(C)c1ccc(CC(=O)N2CCN(c3ccc(C#N)nn3)CC2)cc1` [PZ-2891, 6-(4-(2-(4-isopropylphenyl)acetyl)piperazin-1-yl)pyridazine-3-carbonitrile], the remaining binding at 10 µM came out at 75% at AURKA; 100% on HUNK; 47% in [1]; 76% at MEK1; 80% on MEK2; 81% on MLK1. For the same molecule, the remaining binding at 10 µM on MLK3 came to 80%; at NEK4, 95%; at p38-beta, 96%; at PCTK2 it was 95%; on PRKCD it was 89%; on TRPM6, 98%. In addition, the remaining binding at 10 µM worked out at 80% on VPS34 and 100% at YSK1. Moreover, the Papp in the data set “PAMPA-BBB” is 52 ×10⁻⁶ cm/s. Moreover, the “intracellular CoA ([3H]pantothenate labeling)” value with C3A cells (10 μM, C3A cells) is “increased the amount of intracellular CoA”. Moreover, the “intracellular pantothenate ([3H]pantothenate labeling)” value in the data set on C3A cells (10 μM, C3A cells) was “lowered intracellular pantothenate”. In addition, the “acetyl-CoA levels in C3A cells” value in the data set on C3A cells (10 μM, mass spectrometry) is on record as “higher acetyl-CoA levels”. Moreover, the “total intracellular CoA levels in C3A cells” value in the data set on C3A cells (increasing concentrations (20 and 50 μM less activating)) is given as “CoA progressively increased up to 10 μM”. Moreover, the dissociation constant Kd at SIK2 (SIK2), at SIK2 (SIK2 Replicate ID = 1) and at SIK2 (SIK2 Replicate ID = 2) was greater than 30 µM throughout.
